Patent US20260103730A1, “METHOD FOR RELEASING VIRAL VECTORS” (PCI Biotech AS, priority 2022, published 2026)

Columns and labels:
Jurkat cells [1] = assay: MTS assay of metabolic activity/viability after TPCS2a and blue light; type: cell-based; settings: 48 hours incubation
Experimental: (§1) Jurkat cells were incubated with 0.1 ug/mL or 1 ug/mL fimaporfin (TPCS2a, tetraphenyl chlorin disulfonate) for 10 minutes in complete RPMI 1640 medium. Following irradiation, the cells were incubated for 48 hours at 37° C. and 5% CO2, after which several analyses of cell health were performed.
(§2) Blue light irradiation/illumination was performed using LumiSource according to the manufacturer's protocol (PCI Biotech)
MTS metabolism was performed as a measure of metabolic activity and performed according the manufacturer's protocol (Promega).

Jurkat cells [2] = assay: Cell counting (Coulter Counter) as measure of cell growth; type: cell-based; settings: higher dose (1 ug/mL) vs 0.1 ug/mL at corresponding irradiation times, 48 hours after irradiation
Experimental: as §1, §2
Cell counting was performed as a measure of cell growth using a Coulter Counter by Beckman Coulter according to the manufacturer's protocol. Counting was performed 48 hours after irradiation.

Jurkat cells [3] = assay: Hoechst 33258 entry by flow cytometry as measure of cell death / pore formation; type: cell-based
Experimental: as §1, §2
Entry of Hoechst 33258 (Thermo Fisher Scientific) into cells was performed as a measure of cell death. When Hoechst 33258 enters cells, it binds to double-stranded DNA generating a strong fluorescent signal. Entry of the stain into the cells requires the presence of pores in the plasma membrane and is a late-stage measure of cell health, i.e. cell death. Hoechst 33258 staining and flow cytometry was performed according to the manufacturer's protocol (Thermo Fisher Scientific).

HEK293 cells [4] = assay: LDH release assay (leakage of cytosolic material); type: cell-based; settings: 10 min, assessed after 2 hours
Experimental: HEK293 cells were incubated with either 0.5 μg/mL TPCS2a or 0.5% Tween 20 in serum-free DMEM. Alternatively, HEK293 cells were incubated with 50 μg/mL TPCS2a in 10% serum supplemented DMEM for 10 minutes. The cells were subsequently irradiated with blue light for 5 minutes or received no irradiation. Blue light irradiation/illumination was performed using LumiSource according to the manufacturer's protocol (PCI Biotech). The negative control (Neg. Ctrl) was either serum-free DMEM or 10% Fetal Bovine Serum (FBS) supplemented DMEM containing the TPCS2a solvent to control for the effect of solvents on LDH leakage. Background absorbance values of the LDH assay was assessed using DMEM with increasing concentrations of FBS at 1%, 5% and 10%.
LDH release was performed as a measure of cell lysis and release of cytosolic material using CyQUANT LDH Cytotoxicity Assay (Thermo Fisher Scientific) according to manufacturer's protocol. Cells were seeded in 48 well plates one day prior to treatments in 400 μL. The following day, treatments were given for 10 minutes at 37° C. 5% CO2, prior to 5 minutes illumination. Plates were subsequently incubated for 2 hours in an incubator (37° C. 5% CO2), then centrifuged for 5 minutes at 400×g, after which 50 μL supernatant from each sample was transferred to a 96 well plate for absorbance measurements according to kit instructions. 490 nm absorbance reflects LDH and 680 nm reflects absorbance background from the instrument. 490 nm absorbance minus 680 nm absorbance is directly proportional to the amount of LDH released into the medium.

HEK293 cells [5] = assay: Cellular morphology after photochemical treatment (Nomarski/fluorescence microscopy); type: cell-based; settings: HEK293, 5 μg/mL 10 min
Experimental: HEK293 cells were incubated with 5 μg/mL TPCS2a complete DMEM for 10 minutes, followed by irradiation with blue light for 5 minutes. Blue light irradiation/illumination was performed using LumiSource according to the manufacturer's protocol (PCI Biotech). Cells were imaged by light (Nomarski) and fluorescence microscopy prior to illumination and 2 hours after illumination. Imaging was performed as described in Example 2.

HEK293 cells [6] = assay: DNA leakage by Hoechst 33258 staining and microscopy, photochemical vs detergent lysis; type: cell-based; settings: HEK293, TPCS2a 5 μg/mL or Tween 20 0.5%, 10 min, irradiation 5 minutes, 2 hours after
Experimental: (§3) HEK293 cells were incubated with 5 μg/mL TPCS2a or 0.5% Tween 20 in complete DMEM for 10 minutes followed by irradiation for 5 minutes. Blue light irradiation/illumination was performed using LumiSource according to the manufacturer's protocol (PCI Biotech). A negative control of complete DMEM containing the TPCS2a solvent was used to control for solvent effects on cell morphology and lysis.
Hoechst 33258 stain was added to samples 2 minutes prior to imaging. Hoechst 33258 staining was performed according to the manufacturer's protocol (Thermo Fisher Scientific). The cells were imaged by light (Nomarski) and fluorescence microscopy prior to irradiation and 2 hours after irradiation. Imaging was performed as described in Example 2. Changes to cellular morphology were analysed visually.

HEK293T cells [7] = assay: Release of AAV2 viral vectors from producer cells (ddPCR of DNase-resistant vg in supernatant); type: cell-based; settings: adherent HEK293T, TPCS2a 5 μg/mL 10 min, blue light 5 minutes, supernatant 2 hours later
Experimental: 75-80% confluent HEK293T cells were triple transfected with Adeno-associated virus serotype 2 (AAV)-encoding plasmids (pHelper, AAV2 RepCap, and pscAAV-GFP plasmids) using polyethylenimine (PEI) in 12 well plates, resulting in AAV2 production. For each transfection, plasmids and PEI were added to complete DMEM to a total volume of 640 μL, followed by vortexing for 10 seconds and 15 minutes incubation at room temperature. Medium was removed from the HEK293T cells in 12 well plates, and replaced by the DMEM-plasmid-PEI mixture. Cells were incubated for three days at 37° C. and 5% CO2. Three days after transfection, cells were subjected to treatments (as described below) for 10 minutes in complete DMEM.
Treatments were: • a) Untransfected cells, no further treatment. • b) Transfected cells. Received photosensitiser solvent but no photosensitiser (to control for solvent effect on cell lysis). • c) Transfected cells. Incubated with 5 μg/mL TPCS2a (Fimaporfin) for 10 minutes. […]
Supernatants were harvested 2 hours later and cell debris (if any) was eliminated by centrifugation. DNase-resistant viral genome (vg) from all samples was quantified by digital droplet PCR amplification (Bio-Rad QX600) of DNase-resistant (i.e. viral capsid-encapsulated) DNA using primers targeting inverted terminal repeats. Viral vector yield was expressed as “vg/mL” (AAV vector genomes per millilitre).

HEK293T suspension cells = assay: Photochemical lysis of suspension cells studied by microscopy; type: cell-based; settings: 5 μg/mL 10 min + blue light 5 minutes, 2 hours after
Experimental: HEK293T suspension cells were treated with 5 μg/mL TPCS2a (fimaporfin) or fimaporfin solvent without photosensitiser (“Neg. Ctrl”) in complete DMEM for 10 minutes, followed by blue light illumination for 5 minutes (as described in Example 6). Hoechst 33258 was added to samples 2 minutes prior to imaging. Hoechst 33258 DNA stain is not readily cell penetrable, and therefore stains free DNA or DNA in cells with plasma membrane pores.
Cells were washed in PBS/1% FBS prior to imaging to remove unbound fimaporfin. Cells were imaged by light (Nomarski) microscopy and fimaporfin and Hoechst fluorescence by fluorescence microscopy after 10 minutes (i.e. prior to illumination) and 2 hours after illumination. Imaging was conducted as set out in Example 2.

HEK293T cells [8] = assay: Genomic DNA leakage into supernatant by ddPCR (albumin primers); type: cell-based, human; settings: TPCS2a 5 μg/mL 10 min, irradiation 5 minutes, 2 hours incubation
Experimental: as §3, with “75-80% confluent HEK293T” for “HEK293”, “minutes (where indicated).” for “minutes.”, “cell” for “cell morphology and”
Following irradiation, the cells were incubated for 2 hours at 37° C. and 5% CO2, after which supernatants were collected. Cell debris (if any) was eliminated by centrifugation. Genomic DNA from all samples was quantified by ddPCR (Bio-Rad QX600) using primers targeting human albumin DNA.
Albumin DNA values were normalised to the negative control.

tetraphenyl chlorin disulfonate [TPCS2a]
cell viability (MTS absorbance) (Jurkat cells [1]; TPCS2a 1 μg/ml 10 min, 4-5 minutes irradiation): total loss of viability | cell viability (MTS absorbance) (Jurkat cells [1]; TPCS2a 0.1 or 1 ug/mL 10 min, blue light 2-5 minutes): reductions in viability | cell density (cell counting) (Jurkat cells [2]): reduced cell density | cell death (Hoechst 33258 staining) (Jurkat cells [3]; TPCS2a 0.1 μg/ml 10 min, various irradiation times): some cell death but only at longer irradiation times | cell death (Hoechst 33258 staining) (Jurkat cells [3]; TPCS2a 1 μg/ml 10 min, after 2 minutes of irradiation): significant cell death | LDH release (HEK293 cells [4]; HEK293, 10% FBS DMEM, TPCS2a 50 μg/mL, blue light 5 minutes): increased significantly | LDH release (HEK293 cells [4]; HEK293, 10% FBS DMEM, TPCS2a 50 μg/mL, no irradiation): comparable levels of LDH release to HEK293 cells treated with a negative control | LDH release (HEK293 cells [4]; HEK293, serum-free DMEM, TPCS2a 0.5 μg/mL or Tween 20 0.5%, blue light 5 minutes): increased significantly | LDH release (HEK293 cells [4]; HEK293, serum-free DMEM, TPCS2a 0.5 μg/mL or Tween 20 0.5%, no irradiation): comparable levels of LDH release to HEK293 cells treated with a negative control | cellular morphology (HEK293 cells [5]; absence of irradiation): do not exhibit changes to their cellular morphology | cellular morphology (HEK293 cells [5]; blue light 5 minutes, 2 hours after illumination): dramatically altered cellular morphology and had shifted to a lytic phenotype | DNA leakage (Hoechst 33258 microscopy) (HEK293 cells [6]): DNA stays within the boundaries of the cell corpse | release of AAV2 viral vectors into supernatant (HEK293T cells [7]): releases non-enveloped viral vectors from producer cells | DNA retention (Hoechst 33258 microscopy) (HEK293T suspension cells): DNA is retained within the boundaries of the lysed cells | plasma membrane disruption (HEK293T suspension cells): opens up the plasma membrane | genomic DNA leakage into supernatant (ddPCR) (HEK293T cells [8]): does not cause the leakage of genomic DNA
